Data published in patent publication US20100143507A1, “CARBOXYLIC ACID INHIBITORS OF HISTONE DEACETYLASE, GABA TRANSAMINASE AND SODIUM CHANNEL” (AUSPEX PHARMACEUTICALS, INC., priority 2008, published 2010).

Assay: In vitro liver microsomal stability assay
Type: in vitro ADME
Conditions: 1 mg per mL liver microsome protein, NADPH-generating system, 1 μM test compound, 37° C., 0-60 minutes, LC/MS/MS
Method: Liver microsomal stability assays were conducted with 1 mg per mL liver microsome protein with an NADPH-generating system (2.2 mM NADPH, 25.6 mM glucose 6-phosphate, 6 units per mL glucose 6-phosphate dehydrogenase and 3.3 mM magnesium chloride) in 2% sodium bicarbonate. Test compounds were prepared as solutions in 20% acetonitrile-water and added to the assay mixture (final assay concentration 1 μM) and incubated at 37° C. Final concentration of acetonitrile in the assay should be <1%. Aliquots (50 μL) were taken out at times 0, 15, 30, 45, and 60 minutes, and diluted with ice cold acetonitrile (200 μL) to stop the reactions. Samples were centrifuged at 12,000 RPM for 10 minutes to precipitate proteins. Supernatants were transferred to microcentrifuge tubes and stored for LC/MS/MS analysis of the degradation half-life of the test compounds. […] In certain embodiments, the increase in degradation half-life is at least 5%; at least 10%; or at least 15%.

degradation half-life as compared to the non-isotopically enriched drug: increased degradation half-life
SMILES: [2H]C([2H])([2H])C([2H])([2H])C([2H])([2H])C([2H])(C(=O)O)C([2H])([2H])C([2H])([2H])C([2H])([2H])[2H] [valproic acid-d15]
